# Test results from paper PMC6017200, “Inhibition of Cytochrome P450 Activities by Extracts of Hyptis verticillata Jacq.: Assessment for Potential HERB-Drug Interactions” (Molecules : A Journal of Synthetic Chemistry and Natural …, 2018).
# Entries after “also recorded” stand apart in the source; their conditions may differ. Where two headings read alike, the source gives them in different places.
# Experiments:
# human CYP1A2 = molecular target: T1, human CYP1A2 (Homo sapiens, UniProt P05177); assay: biochemical
# T1 sequence (P05177 1-516): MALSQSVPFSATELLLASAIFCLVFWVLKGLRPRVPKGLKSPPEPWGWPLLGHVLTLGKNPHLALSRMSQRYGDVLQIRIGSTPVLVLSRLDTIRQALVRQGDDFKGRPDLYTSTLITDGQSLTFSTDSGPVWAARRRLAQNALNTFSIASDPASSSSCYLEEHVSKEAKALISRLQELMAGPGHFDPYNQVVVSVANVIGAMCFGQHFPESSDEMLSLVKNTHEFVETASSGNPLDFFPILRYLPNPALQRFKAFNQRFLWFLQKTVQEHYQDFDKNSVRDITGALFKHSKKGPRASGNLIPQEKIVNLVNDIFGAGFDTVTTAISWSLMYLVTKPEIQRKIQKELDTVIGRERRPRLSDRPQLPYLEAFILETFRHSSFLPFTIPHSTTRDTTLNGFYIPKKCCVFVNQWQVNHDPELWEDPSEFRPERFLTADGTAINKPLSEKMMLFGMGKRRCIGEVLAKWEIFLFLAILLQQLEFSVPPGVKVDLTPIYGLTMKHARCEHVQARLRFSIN
# Description: Escherichia coli membranes expressing human CYP1A1, CYP1A2, CYP1B1, CYP3A4, and CYP2D6, co-expressed with CYP reductase, were purchased from Cypex Ltd. (Dundee, UK).
# The following methodology was developed by Crespi et al. and adapted by Shields et al. and Murray et al. to screen natural products for cytochrome P450 inhibition potential with a particular emphasis on the P450 enzymes, CYPs 1A1, 1A2, 1B1, 3A4 and 2D6. Plant extracts and various phytochemicals were evaluated for their ability to inhibit the catalytic activity of human cytochrome P450 enzymes by means of high throughput fluorometric inhibition assays conducted in 96 well microtitre plates as described by Crespi et al., BD Gentest and Murray et al..
# 7-Ethoxy-3-cyanocoumarin (CEC) was used as a substrate for detecting the activities of CYPs 1A1, and 1A2, 7-ethoxyresorufin (ERes) for CYP1B1, 7-benzyloxy-4-trifluoromethylcoumarin (BFC) for CYP3A4, and 3-[2-(N,N-diethyl-N-methylammonium)-ethyl]-7-methoxy-4-methylcoumarin (AMMC) for CYP2D6. The reactions were monitored fluorometrically at 37 °C, using an Eclipse Fluorescence Spectrophotometer (Varian Cary, Palo Alto, CA, USA).
# The data listed represent average values from a minimum of two experiments run in triplicate: % Enzyme activity = [Min + (Max − Min)/(1+10^((LogIC50^− x) × p))] where Min and Max are the minimal and maximal observed effects, respectively; x is the concentration of test agent; EC50 is the concentration yielding half-maximal response (i.e., IC50); and p is the slope parameter.
# [1] = DPPH radical scavenging antioxidant assay; conditions: 0.097 to 50 µg/mL in methanol, thirty-minute incubation, 517 nm
# Description: The 1,1-diphenyl-2-picrylhydrazyl (DPPH) assay was used to measure the antioxidant capacity of four different extracts of the aerial parts of H. verticillata (Figure 2). The reduction of DPPH to hydrazine produces a colour change from purple to yellow, which is measured spectrophotometrically and compared with the known antioxidant, ascorbic acid, as described in the Materials and Methods section.
# Figure 2 (A) DPPH antioxidant assay for H. verticillata extracts. […] Positive control activity was determined in the presence of varying concentrations of known antioxidant, ascorbic acid, ranging from 0.097 to 50 µg/mL. Data are expressed as Mean Percentage Antioxidant Activity (% Inhibition of DPPH) for duplicate assays for at least two independent experiments. (B) Summary of results. […]
# The DPPH radical scavenging capacity of extracts of H. verticillata were evaluated by the method described by Williams et al.. The electron-donating ability of each extract, at varying concentrations, was measured colourimetrically through the bleaching of purple-coloured MeOH solution of DPPH. […]
# Each test extract, as well as the ascorbic acid control, was made up in methanol to a starting concentration of 50 µg/mL and serially diluted in ninety-six well microtitre plates. […] After a thirty-minute incubation period at room temperature, the absorbance was read against a blank, comprising methanol, at 517 nm. […]
# CYP3A4 = conditions: cited from earlier work; for IC50: read-out: IC50 Value, reported CYP3A4 inhibition
# CYP1A2 = conditions: human liver microsomes, read-out: IC50 Value, reported CYP1A2 inhibition, cited from earlier work
# CYP2D6 = conditions: read-out: IC50 Value, reported CYP2D6 inhibition, cited from earlier work
# CYP2C8/C9/C19 = conditions: human liver microsomes; read-out: IC50 Value, reported CYP2C8/C9/C19 inhibition; cited from earlier work
# CYP2C9 = system: CYP2C9; set-up: method as in PMID 21276781; conditions: read-out: IC50 Value, reported CYP2C9 inhibition; cited from earlier work
# [2] = set-up: method as in PMID 24413832; conditions: aerial dried samples in ethanol; cited from earlier work
# [3] = recombinant human CYP1A2, individual phytochemicals
compound,measurement,setting,value
COc1cc([C@@H]2c3cc4c(cc3[C@H](O)[C@H]3COC(=O)[C@H]23)OCO4)cc(OC)c1O [4′-Demethylpodophyllotoxin],"IC50, CYP1A2 activity",human CYP1A2; [3],No inhibition
same,"IC50, CYP1A2 activity","human CYP1A2; recombinant human CYP1A2, individual phytochemicals, listed as 4-demethylpodophyllotoxin",no inhibition
same,"IC50, CYP1A2 activity","human CYP1A2; recombinant human CYP1A2, individual phytochemicals, listed as 4′-demethylpodophyllotoxin",no impact
COc1cc(C[C@H]2C(=O)OC[C@@H]2Cc2ccc3c(c2)OCO3)cc(OC)c1OC [(-)-Yatein],IC50,human CYP1A2,71.9 ± 1.8 µM
O=C1O[C@H]([C@@H](O)CO)C(O)=C1O [Ascorbic acid],"IC50, DPPH antioxidant assay",[1],1.32 ± 0.0 mg/L
same,"IC50, DPPH antioxidant assay",[1]; listed as ascorbic acid,1.3 mg/L
"C=C1CCC(C(C)C)C2C=C(C)C(=O)CC12 (stereo not drawn) [Cadina-4,10(15)-dien-3-one]",IC50,"human CYP1A2; read-out: IC50, CYP1A2 activity, recombinant human CYP1A2, individual phytochemicals",> 500 µM
CC1(C)CC[C@]2(C(=O)O)CC[C@]3(C)C(=CC[C@@H]4[C@@]5(C)CC[C@H](O)C(C)(C)[C@@H]5CC[C@]43C)[C@@H]2C1 [Oleanolic acid],IC50,human CYP1A2,> 100 µM
same,IC50,CYP1A2; listed as oleanolic,> 100 µM
same,IC50,CYP1A2,144 µM
same,IC50,CYP2D6; human liver microsomes,> 500 µM
same,IC50,CYP2C8/C9/C19,> 500 µM
COc1cc([C@@H]2c3cc4c(cc3[C@H](O)[C@H]3COC(=O)[C@H]23)OCO4)cc(OC)c1OC [Podophyllotoxin],"IC50, CYP1A2 activity",human CYP1A2; [3],No inhibition
same,"IC50, CYP1A2 activity","human CYP1A2; recombinant human CYP1A2, individual phytochemicals, listed as podophyllotoxin",no impact; also recorded: no inhibition
O=C(/C=C/c1ccc(O)c(O)c1)O[C@H](Cc1ccc(O)c(O)c1)C(=O)O [Rosmarinic acid],"IC50 Value, reported CYP3A4 inhibition",CYP3A4,No impact
same,IC50,CYP3A4,241 µM
same,IC50,CYP2D6,> 500 µM
same,IC50,CYP2C9,319 µM
Cc1c(C)c2c(c(C)c1O)CCC(C)(C(=O)O)O2 (stereo not drawn) [Trolox],"IC50, DPPH assay",[2],1.99 mg/L
C[C@H]1[C@H](C)CC[C@]2(C(=O)O)CC[C@]3(C)C(=CC[C@@H]4[C@@]5(C)CC[C@H](O)C(C)(C)[C@@H]5CC[C@]43C)[C@H]12 [Ursolic acid],IC50,human CYP1A2,> 100 µM
